“Also recorded” adds a separate entry of the source. Where two headings read alike, the source gives them in different places.

The test system of test [1] is dogs undergoing soft tissue surgery. Conditions: 0.4 mg/kg IV, ref Gomes et. al., 2020; cited from earlier work.
The test system of test [2] is dogs. The note with it: cited from earlier work.
The test system of test [3] is dogs. The note with it: cited from earlier work. The source holds these as a separate data set.
The test system of test [4] is healthy dogs. Briefly: Rectal temperature change from baseline. Conditions: SC 0.4 mg/kg, n=6, P<0.05. It is filed as in vivo, dogs (Beagles).
Where [5] appears, read: 0.4 mg/kg IV, ref Wegner et al., 2008.

Take `Oc1ccc2c(c1)[C@@]13CCCC[C@@]1(O)[C@@H](C2)N(CC1CCC1)CC3` [butorphanol]: in test [1], the “analgesia in clinical trial” value was “insufficient analgesia”. Besides, the “antinociception, colonic distension model” value in test [2] (0.4 mg/kg IV, 30 minutes (latest time point assessed), ref Houghton, et. al., 1991) is listed as “significant effects; also recorded: significant antinociception”. The “antinociception, colonic distension model” value in test [2] (0.8 mg/kg SC, 45 minutes, ref Sawyer, et. al. 1991) is “did produce a significant effect; also recorded: significant antinociception”. Further, the “response, colonic distension nociceptive model” value in test [2] (doses up to 0.4 mg/kg SC, 45 minutes, ref Sawyer et al., 1991) is given as “failed to produce a significant response”. Also, in test [3] (setting [5]), the “thermal antinociception compared to hydromorphone at 0.1 mg/kg IV” value is “equianalgesic peak effects and duration”; the “time of peak effect, thermal antinociception” value was 1 h. The “time of peak antinociceptive effect after IV administration” value in test [3] (IV, ref Wegner et al 2008) is 60 min. The “statistically significant decrease in rectal temperature compared to baseline” value in test [4] is recorded as “did not occur”.

Source of the values: publication PMC10949855 (Journal of veterinary pharmacology and therapeutics, 2022).
